Counter-ions that a name gives are not always drawn.
Key:
human αVβ3 = human αVβ3 (Homo sapiens, UniProt P05106+P06756); assay: human αVβ3 HTRF binding assay
Description: (§1) All binding assays used the HTRF (homogeneous time resolved fluorescence) technology from Cisbio International, therefore all assays are described as HTRF binding assays. The assay results for the Examples are listed above together with the characterization data. The HTRF binding assays are established for the following integrins: human αVβ6, human αVβ1, human αVβ3, human αVβ5, and human αVβ8. All assays used the following assay buffer: 20 mM Tris, pH 7.4, 1 mM MgCl2, 1 mM MnCl2, 0.01% Tween 20, and 0.01% BSA. Alternatively, a SPA-based assay was used for evaluation of receptor binding.
(§2) The following describes the components and a representative procedure for the human αVβ6 HTRF binding assay: Recombinant human αVβ6 Integrin (R & D systems, 3817-AV) was biotinylated. Biotinylated human αVβ6 Integrin was added to assay vessel at a final concentration of 1.25 nM. FITC-conjugated fibronectin (Cytoskeleton, FNR02) was then added at the final concentration of 5 nM. The mixture was centrifuged at 600 rpm for three minutes using Thermo Fisher Heraeus Multifuge X3 centrifuge and then incubated at room temperature for an hour. Streptavidin Terbium (Cisbio international 610STLB) was then added at the final concentration of 0.625 nM. The resulting mixture was centrifuged at 600 rpm for three minutes using Thermo Fisher Heraeus Multifuge X3 centrifuge and then incubated at room temperature overnight in dark before reading HTRF signals. […]

human αVβ8 = human αVβ8 (Homo sapiens, UniProt P06756+P26012); assay: human αVβ8 HTRF binding assay
human αVβ8, sequence (P06756 31-992 limits assumed): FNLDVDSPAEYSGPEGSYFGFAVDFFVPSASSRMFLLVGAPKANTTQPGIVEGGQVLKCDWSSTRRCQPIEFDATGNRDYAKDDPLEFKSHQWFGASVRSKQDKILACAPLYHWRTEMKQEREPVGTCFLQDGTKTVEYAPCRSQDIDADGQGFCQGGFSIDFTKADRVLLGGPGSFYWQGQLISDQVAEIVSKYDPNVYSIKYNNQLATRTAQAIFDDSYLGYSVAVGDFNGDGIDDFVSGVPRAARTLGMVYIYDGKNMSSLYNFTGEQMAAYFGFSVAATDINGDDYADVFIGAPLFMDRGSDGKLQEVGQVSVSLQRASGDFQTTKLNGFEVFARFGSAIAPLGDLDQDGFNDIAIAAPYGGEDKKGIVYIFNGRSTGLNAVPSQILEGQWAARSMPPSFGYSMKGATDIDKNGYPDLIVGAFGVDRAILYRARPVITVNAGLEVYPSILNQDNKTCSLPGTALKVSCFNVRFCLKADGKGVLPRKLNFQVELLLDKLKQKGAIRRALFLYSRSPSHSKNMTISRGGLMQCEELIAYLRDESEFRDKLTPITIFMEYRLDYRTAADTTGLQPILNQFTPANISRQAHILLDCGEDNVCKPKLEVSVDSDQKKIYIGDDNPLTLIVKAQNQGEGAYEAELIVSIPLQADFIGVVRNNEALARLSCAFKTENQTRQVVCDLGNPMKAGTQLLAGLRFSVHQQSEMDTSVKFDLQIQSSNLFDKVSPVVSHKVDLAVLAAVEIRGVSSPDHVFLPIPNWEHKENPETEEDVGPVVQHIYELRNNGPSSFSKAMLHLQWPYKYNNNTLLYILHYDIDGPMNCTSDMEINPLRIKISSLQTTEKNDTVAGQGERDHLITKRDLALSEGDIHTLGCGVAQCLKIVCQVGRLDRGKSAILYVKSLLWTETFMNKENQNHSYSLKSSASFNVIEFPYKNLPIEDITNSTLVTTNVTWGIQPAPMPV
human αVβ8, sequence (P26012 43-684 limits assumed): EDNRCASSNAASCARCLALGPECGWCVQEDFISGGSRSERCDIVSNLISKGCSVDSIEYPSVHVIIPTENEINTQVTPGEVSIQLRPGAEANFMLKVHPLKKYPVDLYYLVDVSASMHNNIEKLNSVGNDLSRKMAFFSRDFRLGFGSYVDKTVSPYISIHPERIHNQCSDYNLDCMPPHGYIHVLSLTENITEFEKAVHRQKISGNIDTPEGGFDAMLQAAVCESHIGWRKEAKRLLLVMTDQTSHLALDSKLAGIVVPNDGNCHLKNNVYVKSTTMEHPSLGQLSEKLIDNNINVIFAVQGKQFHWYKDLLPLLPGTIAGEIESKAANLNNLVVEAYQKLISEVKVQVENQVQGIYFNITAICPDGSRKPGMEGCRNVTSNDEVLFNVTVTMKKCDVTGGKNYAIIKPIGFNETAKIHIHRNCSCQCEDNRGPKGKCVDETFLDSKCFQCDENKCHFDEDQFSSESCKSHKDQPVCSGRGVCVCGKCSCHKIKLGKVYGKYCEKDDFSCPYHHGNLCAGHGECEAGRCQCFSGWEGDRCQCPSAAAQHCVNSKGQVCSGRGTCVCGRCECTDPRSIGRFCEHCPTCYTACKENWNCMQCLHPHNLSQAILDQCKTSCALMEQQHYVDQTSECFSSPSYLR
Description: as §1, §2

human αVβ5 = human αVβ5 (Homo sapiens, UniProt P06756+P18084); assay: human αVβ5 HTRF binding assay
human αVβ5, sequence (P06756 31-992 limits assumed): as the sequence (P06756 31-992 limits assumed) above
human αVβ5, sequence (P18084 24-719 limits assumed): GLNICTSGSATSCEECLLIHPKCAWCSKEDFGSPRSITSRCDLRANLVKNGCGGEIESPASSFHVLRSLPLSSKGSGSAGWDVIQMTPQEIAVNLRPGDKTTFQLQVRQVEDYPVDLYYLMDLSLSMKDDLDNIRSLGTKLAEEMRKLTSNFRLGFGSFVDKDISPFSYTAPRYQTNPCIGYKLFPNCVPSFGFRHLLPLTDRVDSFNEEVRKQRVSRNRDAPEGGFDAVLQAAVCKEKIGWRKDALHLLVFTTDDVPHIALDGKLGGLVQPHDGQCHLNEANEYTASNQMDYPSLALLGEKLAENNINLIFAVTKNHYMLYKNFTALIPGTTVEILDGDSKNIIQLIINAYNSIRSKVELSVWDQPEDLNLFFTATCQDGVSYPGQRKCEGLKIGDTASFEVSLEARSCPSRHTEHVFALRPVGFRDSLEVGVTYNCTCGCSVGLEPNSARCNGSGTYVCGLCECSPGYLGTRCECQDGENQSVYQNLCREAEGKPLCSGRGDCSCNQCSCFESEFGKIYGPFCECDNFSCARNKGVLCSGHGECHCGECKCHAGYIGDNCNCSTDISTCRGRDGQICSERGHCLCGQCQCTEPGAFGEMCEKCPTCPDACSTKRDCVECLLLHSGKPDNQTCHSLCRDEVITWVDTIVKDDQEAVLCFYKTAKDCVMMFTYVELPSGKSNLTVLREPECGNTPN
Description: as §1, §2

human αVβ1 = human αVβ1 (Homo sapiens, UniProt P05556+P06756); assay: human αVβ1 HTRF binding assay
human αVβ1, sequence (P06756 31-992 limits assumed): as the sequence (P06756 31-992 limits assumed) above
human αVβ1, sequence (P05556 21-728 limits assumed): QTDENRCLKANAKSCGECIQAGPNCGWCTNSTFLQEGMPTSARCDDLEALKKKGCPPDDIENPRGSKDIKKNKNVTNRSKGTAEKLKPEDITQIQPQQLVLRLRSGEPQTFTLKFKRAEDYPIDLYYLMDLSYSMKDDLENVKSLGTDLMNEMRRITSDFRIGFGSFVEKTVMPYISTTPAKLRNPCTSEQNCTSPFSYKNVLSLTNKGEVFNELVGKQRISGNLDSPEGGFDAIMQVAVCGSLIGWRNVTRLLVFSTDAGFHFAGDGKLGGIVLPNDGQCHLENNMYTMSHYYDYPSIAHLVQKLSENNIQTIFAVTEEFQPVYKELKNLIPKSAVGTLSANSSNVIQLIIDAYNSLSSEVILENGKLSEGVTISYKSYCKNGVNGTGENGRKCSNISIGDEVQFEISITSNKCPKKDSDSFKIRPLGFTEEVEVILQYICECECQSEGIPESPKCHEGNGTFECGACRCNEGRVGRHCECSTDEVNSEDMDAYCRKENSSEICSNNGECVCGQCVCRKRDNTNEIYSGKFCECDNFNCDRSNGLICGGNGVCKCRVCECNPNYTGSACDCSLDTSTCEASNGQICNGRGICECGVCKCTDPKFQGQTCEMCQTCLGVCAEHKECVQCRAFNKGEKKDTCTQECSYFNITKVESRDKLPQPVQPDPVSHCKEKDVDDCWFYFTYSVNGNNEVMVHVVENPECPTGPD
Description: as §1
The following describes the components and a representative procedure for the human αVβ6 HTRF binding assay: Recombinant human αVβ6 Integrin (R & D systems, 3817-AV) was biotinylated. Biotinylated human αVβ6 Integrin was added to assay vessel at a final concentration of 1.25 nM. FITC-conjugated fibronectin (Cytoskeleton, FNR02) was then added at the final concentration of 5 nM. The mixture was centrifuged at 600 rpm for three minutes using Thermo Fisher Heraeus Multifuge X3 centrifuge and then incubated at room temperature for an hour. Streptavidin Terbium (Cisbio international 610STLB) was then added at the final concentration of 0.625 nM. The resulting mixture was centrifuged at 600 rpm for three minutes using Thermo Fisher Heraeus Multifuge X3 centrifuge and then incubated at room temperature overnight in dark before reading HTRF signals.
The SPA-based assay was carried out according to the protocol and procedures similar to the ones described in the following reference with appropriate modifications to agents and ligands which are readily understood by one skilled in the art: Pachter J A, Zhang R, Mayer-Ezell R., “Scintillation proximity assay to measure binding of soluble fibronectin to antibody-captured αVβ1 integrin” Anal Biochem. 1995 Sep. 1; 230(1):101-7.

human αVβ6 = molecular target: T1, human αVβ6 (Homo sapiens, UniProt P06756+P18564); assay: human αVβ6 HTRF binding assay; conditions: recombinant human αVβ6 integrin, FITC-conjugated fibronectin
T1 construct: purchased R & D systems 3817-AV
T1 sequence (P06756 31-992 limits assumed): as the sequence (P06756 31-992 limits assumed) above
T1 sequence (P18564 22-707 limits assumed): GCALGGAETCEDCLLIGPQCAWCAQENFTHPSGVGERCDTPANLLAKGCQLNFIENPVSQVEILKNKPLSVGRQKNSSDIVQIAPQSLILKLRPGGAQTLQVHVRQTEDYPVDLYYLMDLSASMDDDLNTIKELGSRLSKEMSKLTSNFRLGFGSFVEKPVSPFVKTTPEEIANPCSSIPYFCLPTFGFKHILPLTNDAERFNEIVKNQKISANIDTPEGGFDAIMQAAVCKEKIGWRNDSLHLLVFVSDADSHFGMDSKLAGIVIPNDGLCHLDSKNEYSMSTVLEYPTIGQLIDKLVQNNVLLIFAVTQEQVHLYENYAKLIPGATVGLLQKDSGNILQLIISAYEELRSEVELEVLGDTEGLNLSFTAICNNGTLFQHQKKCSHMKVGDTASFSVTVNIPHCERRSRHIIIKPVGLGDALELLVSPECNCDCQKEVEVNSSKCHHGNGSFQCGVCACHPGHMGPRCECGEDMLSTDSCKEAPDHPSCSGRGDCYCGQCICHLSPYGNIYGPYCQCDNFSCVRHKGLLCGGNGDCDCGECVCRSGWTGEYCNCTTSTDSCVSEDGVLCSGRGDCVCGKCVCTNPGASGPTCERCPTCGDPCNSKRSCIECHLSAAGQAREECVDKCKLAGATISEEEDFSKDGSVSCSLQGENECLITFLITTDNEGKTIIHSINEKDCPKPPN
In short: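 HTRF binding in 20 mM Tris pH 7.4 with 1 mM MgCl2, 1 mM MnCl2, 0.01% Tween 20 and 0.01% BSA. For αVβ6, biotinylated integrin (1.25 nM) and FITC-fibronectin (5 nM) were incubated 1 h at RT, then streptavidin-terbium (0.625 nM) was added overnight in the dark. An SPA-based fibronectin binding format was an alternative.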

human αVβ3, sequence (P06756 31-992 limits assumed): as the sequence (P06756 31-992 limits assumed) above
human αVβ3, sequence (P05106 27-718 limits assumed): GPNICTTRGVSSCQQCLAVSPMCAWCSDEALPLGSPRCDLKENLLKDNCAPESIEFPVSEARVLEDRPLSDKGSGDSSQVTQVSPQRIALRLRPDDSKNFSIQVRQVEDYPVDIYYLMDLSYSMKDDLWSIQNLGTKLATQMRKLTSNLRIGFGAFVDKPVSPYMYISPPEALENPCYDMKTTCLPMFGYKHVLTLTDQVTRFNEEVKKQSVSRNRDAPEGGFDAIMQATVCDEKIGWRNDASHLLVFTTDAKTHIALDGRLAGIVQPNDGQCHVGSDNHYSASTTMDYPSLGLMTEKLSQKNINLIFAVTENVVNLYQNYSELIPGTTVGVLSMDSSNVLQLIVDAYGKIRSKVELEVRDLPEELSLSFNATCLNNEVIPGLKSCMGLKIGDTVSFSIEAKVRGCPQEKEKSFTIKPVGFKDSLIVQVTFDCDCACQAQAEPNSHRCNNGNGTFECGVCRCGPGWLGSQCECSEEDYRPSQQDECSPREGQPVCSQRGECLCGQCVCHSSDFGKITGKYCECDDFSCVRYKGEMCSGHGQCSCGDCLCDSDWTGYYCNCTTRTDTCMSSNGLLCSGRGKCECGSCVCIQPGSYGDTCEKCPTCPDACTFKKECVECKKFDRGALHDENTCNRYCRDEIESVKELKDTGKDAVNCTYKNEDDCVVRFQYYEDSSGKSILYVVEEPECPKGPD

IC50 (human αVβ3) [nM] | IC50 (human αVβ8) [nM] | IC50 (human αVβ5) [nM] | IC50 (human αVβ1) [nM] | IC50 (human αVβ6) [nM] | SMILES
2.7 | 1500 | 0.31 | 270 | 6 | O=C(O)CC(c1cnc2ccccc2n1)n1ncc2cc(OCCc3ccc4c(n3)NCCC4)ccc21 (racemic) [Example 15, (±)-3-(Quinoxalin-2-yl)-3-(5-(2-(5,6,7,8-tetrahydro-1,8-naphthyridin-2-yl)ethoxy)-1H-indazol-1-yl)propanoic acid]
2.1 | 1900 | 0.25 | 190 | 4.2 | O=C(O)C[C@@H](c1cnc2ccccc2n1)n1ncc2cc(OCCc3ccc4c(n3)NCCC4)ccc21 [Example 17, (S)-3-(quinoxalin-2-yl)-3-(5-(2-(5,6,7,8-tetrahydro-1,8-naphthyridin-2-yl)ethoxy)-1H-indazol-1-yl)propanoic acid]
2.5 | 1300 | 0.38 | 95 | 12 | COc1ccc(C(CC(=O)O)n2ncc3cc(OCCc4ccc5c(n4)NCCC5)ccc32)cn1 (stereo not drawn) [Example 34, 3-(6-Methoxypyridin-3-yl)-3-(5-(2-(5,6,7,8-tetrahydro-1,8-naphthyridin-2-yl)ethoxy)-1H-indazol-1-yl)propanoic acid, TFA]
2.3 | 510 | 0.22 | 83 | 6.2 | COc1ccc([C@H](CC(=O)O)n2ncc3cc(OCCc4ccc5c(n4)NCCC5)ccc32)cn1 [Example 41, (S)-3-(6-Methoxypyridin-3-yl)-3-(5-(2-(5,6,7,8-tetrahydro-1,8-naphthyridin-2-yl)ethoxy)-1H-indazol-1-yl)propanoic acid]
3.8 | 4400 | 0.54 | 270 | 5.5 | O=C(O)CC(c1cnc2ccccc2c1)n1ncc2cc(OCCc3ccc4c(n3)NCCC4)ccc21 (stereo not drawn) [Example 48, 3-(Quinolin-3-yl)-3-(5-(2-(5,6,7,8-tetrahydro-1,8-naphthyridin-2-yl)ethoxy)-1H-indazol-1-yl)propanoic acid, TFA]
4.4 | 3200 | 1.5 | 740 | 8.2 | COc1ccc([C@H](CC(=O)O)n2cc3ccc(CCC4CCc5cccnc5N4)cc3n2)cn1 (stereo partly drawn) [Example 72, (3S)-3-(6-Methoxypyridin-3-yl)-3-(6-(2-(1,2,3,4-tetrahydro-1,8-naphthyridin-2-yl)ethyl)-2H-indazol-2-yl)propanoic acid]
2.8 | 5000 | 0.39 | 170 | 5.8 | CCOc1ncc(C(CC(=O)O)n2ncc3cc(OCCc4ccc5c(n4)NCCC5)ccc32)cn1 (stereo not drawn) [Example 77, 3-(2-Ethoxypyrimidin-5-yl)-3-(5-(2-(5,6,7,8-tetrahydro-1,8-naphthyridin-2-yl)ethoxy)-1H-indazol-1-yl)propanoic acid, TFA]
4.1 | 5000 | 2.2 | 360 | 4.7 | O=C(O)C[C@@H](c1cnc2ccccc2c1)n1cc2ccc(CCC3CCc4cccnc4N3)cc2n1 (stereo partly drawn) [Example 83, (3S)-3-(Quinolin-3-yl)-3-(6-(2-(1,2,3,4-tetrahydro-1,8-naphthyridin-2-yl)ethyl)-2H-indazol-2-yl)propanoic acid]
2.4 | 7600 |  | 210 | 30 | O=C(O)CC(c1cnc2nccnc2c1)n1ncc2cc(OCCc3ccc4c(n3)NCCC4)ccc21 (stereo not drawn) [Example 95, 3-(Pyrido[2,3-b]pyrazin-7-yl)-3-(5-(2-(5,6,7,8-tetrahydro-1,8-naphthyridin-2-yl)ethoxy)-1H-indazol-1-yl)propanoic acid, 2 TFA]
1.6 | 2300 |  | 100 | 5.7 | O=C(O)CC(c1cnc2ncccc2c1)n1ncc2cc(OCCc3ccc4c(n3)NCCC4)ccc21 (stereo not drawn) [Example 101, 3-(1,8-Naphthyridin-3-yl)-3-(5-(2-(5,6,7,8-tetrahydro-1,8-naphthyridin-2-yl)ethoxy)-1H-indazol-1-yl)propanoic acid, 2 TFA]
2.2 | 1300 |  | 39 | 4.3 | O=C(O)CC(c1cncc(N2CCCC2=O)c1)n1ncc2cc(OCCc3ccc4c(n3)NCCC4)ccc21 (stereo not drawn) [Example 102, 3-(5-(2-Oxopyrrolidin-1-yl)pyridin-3-yl)-3-(5-(2-(5,6,7,8-tetrahydro-1,8-naphthyridin-2-yl)ethoxy)-1H-indazol-1-yl)propanoic acid, 2 TFA]
1.3 | 9300 |  | 62 | 15 | O=C(O)CC(c1cnc2c(c1)OCCO2)n1ncc2cc(OCCc3ccc4c(n3)NCCC4)ccc21 (stereo not drawn) [Example 109, 3-(2,3-Dihydro-[1,4]dioxino[2,3-b]pyridin-7-yl)-3-(5-(2-(5,6,7,8-tetrahydro-1,8-naphthyridin-2-yl)ethoxy)-1H-indazol-1-yl)propanoic acid, 2 TFA]
2.9 | 5000 |  | 93 | 21 | CNc1ncc(C(CC(=O)O)n2ncc3cc(OCCc4ccc5c(n4)NCCC5)ccc32)cn1 (stereo not drawn) [Example 112, 3-(2-(Methylamino)pyrimidin-5-yl)-3-(5-(2-(5,6,7,8-tetrahydro-1,8-naphthyridin-2-yl)ethoxy)-1H-indazol-1-yl)propanoic acid, 2 TFA]
 |  |  |  | 740 | COC(=O)NCc1cncc([C@@H](CC(=O)O)n2ncc3cc(OCCc4ccc5c(n4)NCCC5)ccc32)c1 [Example 168]
 |  |  |  | 18 | CS(=O)(=O)NCc1cncc(C(CC(=O)O)n2ncc3cc(OCCc4ccc5c(n4)NCCC5)ccc32)c1 (stereo not drawn) [Example 170]
 |  |  |  | 46 | CC(=O)NCc1cncc(C(CC(=O)O)n2ncc3cc(OCCc4ccc5c(n4)NCCC5)ccc32)c1 (stereo not drawn) [Example 171]
 |  |  |  | 12 | O=C(O)CC(c1cnc2c(c1)CCCN2)n1ncc2cc(OCCc3ccc4c(n3)NCCC4)ccc21 (stereo not drawn) [Example 172, 3-(5-(2-(5,6,7,8-Tetrahydro-1,8-naphthyridin-2-yl)ethoxy)-1H-indazol-1-yl)-3-(5,6,7,8-tetrahydro-1,8-naphthyridin-3-yl)propanoic acid]
 |  |  |  | 370 | O=C(O)CCCNc1cncc(C(CC(=O)O)n2ncc3cc(OCCc4ccc5c(n4)NCCC5)ccc32)n1 (stereo not drawn) [Example 173, 4-((6-(2-Carboxy-1-(5-(2-(5,6,7,8-tetrahydro-1,8-naphthyridin-2-yl)ethoxy)-1H-indazol-1-yl)ethyl)pyrazin-2-yl)amino)butanoic acid]
 |  |  |  | 540 | COc1ccc(C(CC(=O)O)n2ncc3c(CCc4ccc5c(n4)NCCC5)cccc32)cn1 (stereo not drawn) [Example 174, 3-(6-Methoxypyridin-3-yl)-3-(4-(2-(5,6,7,8-tetrahydro-1,8-naphthyridin-2-yl)ethyl)-1H-indazol-1-yl)propanoic acid]
 |  |  |  | 47 | COc1ccc(C(CC(=O)O)n2ncc3cc(OCCc4ccc5c(n4)NCCN5C)ccc32)cn1 (stereo not drawn) [Example 179, 3-(6-Methoxypyridin-3-yl)-3-(5-(2-(1-methyl-1,2,3,4-tetrahydropyrido[2,3-b]pyrazin-6-yl)ethoxy)-1H-indazol-1-yl)propanoic acid]
 |  |  |  | 15 | COc1ccc([C@H](CC(=O)O)n2ncc3cc(OCCc4ccc5c(n4)NCCO5)ccc32)cn1 [Example 180, (S)-3-(5-(2-(3,4-dihydro-2H-pyrido[3,2-b][1,4]oxazin-6-yl)ethoxy)-1H-indazol-1-yl)-3-(6-methoxypyridin-3-yl)propanoic acid]
 |  |  |  | 5000 | COc1ccc([C@@H](CC(=O)O)n2ncc3cc(OCCc4ccc5c(n4)NCCO5)ccc32)cn1 [Example 181, (R)-3-(5-(2-(3,4-dihydro-2H-pyrido[3,2-b][1,4]oxazin-6-yl)ethoxy)-1H-indazol-1-yl)-3-(6-methoxypyridin-3-yl)propanoic acid]
